{
  "source": "ChEMBL document CHEMBL1148883",
  "about": "“Hit-to-lead studies on benzimidazole inhibitors of ITK: discovery of a novel class of kinase inhibitors” (Bioorg Med Chem Lett, 2007)",
  "key": {"[1]": {"biological_target": "T1, Tyrosine-protein kinase ITK/TSK (Homo sapiens, UniProt Q08881)", "T1 sequence (Q08881 whole entry)": "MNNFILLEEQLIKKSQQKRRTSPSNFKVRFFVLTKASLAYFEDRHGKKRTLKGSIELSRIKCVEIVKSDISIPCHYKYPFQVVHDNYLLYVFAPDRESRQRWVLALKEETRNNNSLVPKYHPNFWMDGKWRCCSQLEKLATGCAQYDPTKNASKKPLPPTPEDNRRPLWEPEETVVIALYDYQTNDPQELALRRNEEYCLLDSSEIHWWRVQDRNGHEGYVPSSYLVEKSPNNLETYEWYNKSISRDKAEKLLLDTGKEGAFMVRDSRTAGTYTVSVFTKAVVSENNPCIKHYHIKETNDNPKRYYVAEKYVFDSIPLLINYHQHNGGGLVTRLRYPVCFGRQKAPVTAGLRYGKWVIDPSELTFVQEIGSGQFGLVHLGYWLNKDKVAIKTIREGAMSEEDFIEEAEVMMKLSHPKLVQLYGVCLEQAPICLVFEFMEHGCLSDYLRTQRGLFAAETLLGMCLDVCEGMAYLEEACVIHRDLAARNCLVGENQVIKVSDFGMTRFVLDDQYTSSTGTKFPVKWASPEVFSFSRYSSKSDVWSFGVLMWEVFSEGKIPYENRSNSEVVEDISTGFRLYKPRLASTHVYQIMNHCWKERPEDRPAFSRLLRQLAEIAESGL", "experiment": "Inhibition of human ITK by DELFIA assay"}, "[2]": {"biological_target": "T1, Tyrosine-protein kinase ITK/TSK", "experiment": "Inhibition of human ITK in presence of 3 uM ATP"}, "[3]": {"biological_target": "Platelet-derived growth factor receptor (Homo sapiens) (UniProt P09619+P16234)", "experiment": "Inhibition of PDGFR at 10 uM", "type": "protein-complex assay"}, "[4]": {"biological_target": "Tyrosine-protein kinase TXK (Homo sapiens, UniProt P42681)", "sequence (P42681 whole entry)": "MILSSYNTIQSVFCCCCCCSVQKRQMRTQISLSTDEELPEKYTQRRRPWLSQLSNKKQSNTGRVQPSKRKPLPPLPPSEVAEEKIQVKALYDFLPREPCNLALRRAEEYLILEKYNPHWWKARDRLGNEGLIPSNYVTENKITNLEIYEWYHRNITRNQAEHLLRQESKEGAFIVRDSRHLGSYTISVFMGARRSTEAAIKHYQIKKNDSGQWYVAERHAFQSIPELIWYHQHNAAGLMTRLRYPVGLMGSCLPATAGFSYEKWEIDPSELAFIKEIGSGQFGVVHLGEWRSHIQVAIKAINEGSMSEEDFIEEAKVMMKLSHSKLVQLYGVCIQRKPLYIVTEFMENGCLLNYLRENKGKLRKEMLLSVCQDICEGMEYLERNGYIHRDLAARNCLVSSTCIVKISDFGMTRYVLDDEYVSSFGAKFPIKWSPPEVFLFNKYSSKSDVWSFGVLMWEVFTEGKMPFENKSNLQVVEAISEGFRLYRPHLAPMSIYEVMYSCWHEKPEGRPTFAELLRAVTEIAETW", "experiment": "Inhibition of TXK"}, "[5]": {"biological_target": "Tyrosine-protein kinase Tec (Homo sapiens, UniProt P42680)", "experiment": "Inhibition of TEC"}, "[6]": {"biological_target": "Tyrosine-protein kinase Lyn (Homo sapiens, UniProt P07948)", "experiment": "Inhibition of LYN"}, "[7]": {"biological_target": "T1, Tyrosine-protein kinase ITK/TSK", "experiment": "Inhibition of human ITK in presence of 100 uM ATP"}, "[8]": {"biological_target": "Cyclin-dependent kinase 5 (Homo sapiens) (UniProt Q00535)", "experiment": "Inhibition of CDK5 at 10 uM"}, "[9]": {"biological_target": "MAP kinase-activated protein kinase 2 (Homo sapiens) (UniProt P49137)", "experiment": "Inhibition of MAPKAPK2 at 10 uM"}, "[10]": {"biological_target": "Tyrosine-protein kinase SYK (Homo sapiens) (UniProt P43405)", "experiment": "Inhibition of SYK at 10 uM"}, "[11]": {"biological_target": "Fibroblast growth factor receptor 3 (Homo sapiens, UniProt P22607)", "experiment": "Inhibition of FGFR3"}, "[12]": {"biological_target": "Serine/threonine-protein kinase Chk1 (Homo sapiens) (UniProt O14757)", "sequence (O14757 whole entry)": "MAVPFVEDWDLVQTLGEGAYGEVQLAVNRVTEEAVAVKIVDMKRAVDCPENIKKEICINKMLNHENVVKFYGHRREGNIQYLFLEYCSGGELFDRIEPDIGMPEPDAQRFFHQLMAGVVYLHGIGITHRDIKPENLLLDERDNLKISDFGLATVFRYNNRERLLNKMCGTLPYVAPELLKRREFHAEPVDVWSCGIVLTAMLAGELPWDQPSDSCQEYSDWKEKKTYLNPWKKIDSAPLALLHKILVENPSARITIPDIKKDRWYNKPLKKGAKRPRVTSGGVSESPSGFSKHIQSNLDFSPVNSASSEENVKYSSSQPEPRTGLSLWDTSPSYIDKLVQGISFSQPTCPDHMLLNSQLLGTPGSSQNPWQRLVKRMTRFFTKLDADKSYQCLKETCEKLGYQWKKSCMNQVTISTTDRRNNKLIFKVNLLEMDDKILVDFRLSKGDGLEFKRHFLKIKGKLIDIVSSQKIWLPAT", "experiment": "Inhibition of CHK1 at 10 uM"}, "[13]": {"biological_target": "Cytoplasmic tyrosine-protein kinase BMX (Homo sapiens, UniProt P51813)", "sequence (P51813 whole entry)": "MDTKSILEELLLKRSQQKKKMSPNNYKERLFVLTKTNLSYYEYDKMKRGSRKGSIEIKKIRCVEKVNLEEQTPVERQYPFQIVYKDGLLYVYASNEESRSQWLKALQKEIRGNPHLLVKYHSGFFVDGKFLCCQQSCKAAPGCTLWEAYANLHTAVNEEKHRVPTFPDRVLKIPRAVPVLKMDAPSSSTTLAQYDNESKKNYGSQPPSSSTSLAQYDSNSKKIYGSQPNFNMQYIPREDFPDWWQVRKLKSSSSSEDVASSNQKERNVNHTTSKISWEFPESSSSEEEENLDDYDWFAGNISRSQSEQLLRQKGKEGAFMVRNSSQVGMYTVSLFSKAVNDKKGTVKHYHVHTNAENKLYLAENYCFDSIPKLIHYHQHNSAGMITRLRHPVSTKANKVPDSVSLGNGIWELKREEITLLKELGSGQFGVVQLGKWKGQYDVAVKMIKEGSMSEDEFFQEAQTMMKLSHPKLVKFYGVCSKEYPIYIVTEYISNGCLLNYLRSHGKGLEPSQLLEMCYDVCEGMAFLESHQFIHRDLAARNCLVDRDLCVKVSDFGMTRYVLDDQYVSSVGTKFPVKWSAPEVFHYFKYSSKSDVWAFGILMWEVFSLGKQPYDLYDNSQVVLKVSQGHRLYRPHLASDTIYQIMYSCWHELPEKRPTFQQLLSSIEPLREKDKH", "experiment": "Inhibition of BMX"}, "[14]": {"biological_target": "Protein kinase C beta type (Homo sapiens) (UniProt P05771)", "sequence (P05771 2-671 limits assumed)": "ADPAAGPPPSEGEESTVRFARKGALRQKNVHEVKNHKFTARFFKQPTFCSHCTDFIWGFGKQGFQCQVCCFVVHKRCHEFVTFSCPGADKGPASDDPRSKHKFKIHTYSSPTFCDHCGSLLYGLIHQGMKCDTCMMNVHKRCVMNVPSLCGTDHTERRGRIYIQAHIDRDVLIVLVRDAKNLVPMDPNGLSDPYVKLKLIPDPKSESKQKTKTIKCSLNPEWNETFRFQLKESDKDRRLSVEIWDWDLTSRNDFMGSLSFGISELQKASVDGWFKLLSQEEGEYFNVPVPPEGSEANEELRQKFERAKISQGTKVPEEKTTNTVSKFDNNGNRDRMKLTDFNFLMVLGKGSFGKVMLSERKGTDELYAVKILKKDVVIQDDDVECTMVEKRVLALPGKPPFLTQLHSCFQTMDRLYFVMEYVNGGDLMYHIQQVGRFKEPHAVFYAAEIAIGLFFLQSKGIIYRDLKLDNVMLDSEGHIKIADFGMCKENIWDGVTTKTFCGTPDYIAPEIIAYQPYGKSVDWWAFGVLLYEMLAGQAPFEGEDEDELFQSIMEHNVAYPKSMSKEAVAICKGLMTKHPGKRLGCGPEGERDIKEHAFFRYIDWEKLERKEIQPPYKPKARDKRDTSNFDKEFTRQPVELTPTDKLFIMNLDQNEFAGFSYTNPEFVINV", "experiment": "Inhibition of PKCbeta at 10 uM"}, "[15]": {"biological_target": "T1, Tyrosine-protein kinase ITK/TSK", "experiment": "Inhibition of human ITK in presence of 500 uM ATP"}, "[16]": {"biological_target": "Rho-associated protein kinase 2 (Homo sapiens) (UniProt O75116)", "experiment": "Inhibition of ROCK2 at 10 uM"}, "[17]": {"biological_target": "Epidermal growth factor receptor (Homo sapiens, UniProt P00533)", "sequence (P00533 whole entry)": "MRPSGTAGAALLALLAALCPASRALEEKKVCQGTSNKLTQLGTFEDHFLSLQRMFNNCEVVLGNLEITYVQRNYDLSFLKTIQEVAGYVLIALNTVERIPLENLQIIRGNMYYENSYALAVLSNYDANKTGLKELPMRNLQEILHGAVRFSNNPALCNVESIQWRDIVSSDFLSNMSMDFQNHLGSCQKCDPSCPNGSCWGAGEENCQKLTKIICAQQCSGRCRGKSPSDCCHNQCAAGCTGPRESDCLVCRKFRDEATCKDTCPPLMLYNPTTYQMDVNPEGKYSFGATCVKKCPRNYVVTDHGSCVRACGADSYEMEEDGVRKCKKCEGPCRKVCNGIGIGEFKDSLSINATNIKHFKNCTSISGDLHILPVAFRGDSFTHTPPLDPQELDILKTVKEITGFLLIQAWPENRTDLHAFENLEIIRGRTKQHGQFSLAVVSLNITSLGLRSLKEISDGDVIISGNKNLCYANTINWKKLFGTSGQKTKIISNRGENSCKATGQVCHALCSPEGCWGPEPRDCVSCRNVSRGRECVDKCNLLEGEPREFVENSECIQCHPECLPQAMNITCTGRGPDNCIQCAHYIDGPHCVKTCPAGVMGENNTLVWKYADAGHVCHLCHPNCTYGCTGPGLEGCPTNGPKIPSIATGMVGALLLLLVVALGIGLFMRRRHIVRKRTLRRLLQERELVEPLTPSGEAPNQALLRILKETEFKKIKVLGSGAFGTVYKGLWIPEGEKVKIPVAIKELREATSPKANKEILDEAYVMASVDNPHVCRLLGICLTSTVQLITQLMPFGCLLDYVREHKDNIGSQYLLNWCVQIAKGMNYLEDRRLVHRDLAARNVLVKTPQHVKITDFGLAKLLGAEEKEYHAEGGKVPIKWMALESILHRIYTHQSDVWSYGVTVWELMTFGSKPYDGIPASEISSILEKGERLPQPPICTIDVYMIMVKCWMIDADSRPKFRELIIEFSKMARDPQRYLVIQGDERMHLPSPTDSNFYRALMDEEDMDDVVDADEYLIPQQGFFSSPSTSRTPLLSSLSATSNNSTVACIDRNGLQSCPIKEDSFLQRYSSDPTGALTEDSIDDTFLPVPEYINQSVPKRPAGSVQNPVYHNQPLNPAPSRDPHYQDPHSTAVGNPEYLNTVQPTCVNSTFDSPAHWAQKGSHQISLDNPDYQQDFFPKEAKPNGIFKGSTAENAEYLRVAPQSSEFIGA", "experiment": "Inhibition of EGFR"}, "[18]": {"biological_target": "Ephrin type-A receptor 2 (Homo sapiens, UniProt P29317)", "experiment": "Inhibition of ECK"}, "[19]": {"biological_target": "T1, Tyrosine-protein kinase ITK/TSK", "experiment": "Inhibition of human ITK in presence of 20 uM ATP"}, "[20]": {"biological_target": "Tyrosine-protein kinase BTK (Homo sapiens, UniProt Q06187)", "experiment": "Inhibition of BTK"}, "[21]": {"biological_target": "Cyclin-dependent kinase 2 (Homo sapiens) (UniProt P24941)", "experiment": "Inhibition of CDK2 at 10 uM"}, "[22]": {"biological_target": "Vascular endothelial growth factor receptor 1 (Homo sapiens, UniProt P17948)", "experiment": "Inhibition of VEGFR1"}, "[23]": {"biological_target": "T1, Tyrosine-protein kinase ITK/TSK", "experiment": "Effect on human ITK in DT40 cells assessed as […] of calcium influx by FLIPR assay", "type": "cell-based"}, "[24]": {"experiment": "Inhibition of IRK", "parameters": "species or system Homo sapiens"}, "[25]": {"biological_target": "Hepatocyte growth factor receptor (Homo sapiens, UniProt P08581)", "experiment": "Inhibition of HGFR"}, "[26]": {"biological_target": "Dual specificity mitogen-activated protein kinase kinase 1 (Homo sapiens) (UniProt Q02750)", "sequence (Q02750 whole entry)": "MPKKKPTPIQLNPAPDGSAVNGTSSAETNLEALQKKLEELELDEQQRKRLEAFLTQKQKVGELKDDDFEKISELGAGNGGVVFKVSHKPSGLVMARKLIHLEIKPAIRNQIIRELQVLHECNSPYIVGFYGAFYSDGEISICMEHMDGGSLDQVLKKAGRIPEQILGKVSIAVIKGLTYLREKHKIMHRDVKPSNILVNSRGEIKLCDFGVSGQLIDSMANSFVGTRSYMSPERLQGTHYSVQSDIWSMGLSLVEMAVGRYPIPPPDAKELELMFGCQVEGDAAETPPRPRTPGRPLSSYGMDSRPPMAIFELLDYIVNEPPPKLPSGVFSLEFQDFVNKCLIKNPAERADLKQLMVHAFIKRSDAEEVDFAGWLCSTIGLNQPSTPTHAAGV", "experiment": "Inhibition of MKK1 at 10 uM"}, "[27]": {"biological_target": "Tyrosine-protein kinase JAK3 (Homo sapiens) (UniProt P52333)", "sequence (P52333 whole entry)": "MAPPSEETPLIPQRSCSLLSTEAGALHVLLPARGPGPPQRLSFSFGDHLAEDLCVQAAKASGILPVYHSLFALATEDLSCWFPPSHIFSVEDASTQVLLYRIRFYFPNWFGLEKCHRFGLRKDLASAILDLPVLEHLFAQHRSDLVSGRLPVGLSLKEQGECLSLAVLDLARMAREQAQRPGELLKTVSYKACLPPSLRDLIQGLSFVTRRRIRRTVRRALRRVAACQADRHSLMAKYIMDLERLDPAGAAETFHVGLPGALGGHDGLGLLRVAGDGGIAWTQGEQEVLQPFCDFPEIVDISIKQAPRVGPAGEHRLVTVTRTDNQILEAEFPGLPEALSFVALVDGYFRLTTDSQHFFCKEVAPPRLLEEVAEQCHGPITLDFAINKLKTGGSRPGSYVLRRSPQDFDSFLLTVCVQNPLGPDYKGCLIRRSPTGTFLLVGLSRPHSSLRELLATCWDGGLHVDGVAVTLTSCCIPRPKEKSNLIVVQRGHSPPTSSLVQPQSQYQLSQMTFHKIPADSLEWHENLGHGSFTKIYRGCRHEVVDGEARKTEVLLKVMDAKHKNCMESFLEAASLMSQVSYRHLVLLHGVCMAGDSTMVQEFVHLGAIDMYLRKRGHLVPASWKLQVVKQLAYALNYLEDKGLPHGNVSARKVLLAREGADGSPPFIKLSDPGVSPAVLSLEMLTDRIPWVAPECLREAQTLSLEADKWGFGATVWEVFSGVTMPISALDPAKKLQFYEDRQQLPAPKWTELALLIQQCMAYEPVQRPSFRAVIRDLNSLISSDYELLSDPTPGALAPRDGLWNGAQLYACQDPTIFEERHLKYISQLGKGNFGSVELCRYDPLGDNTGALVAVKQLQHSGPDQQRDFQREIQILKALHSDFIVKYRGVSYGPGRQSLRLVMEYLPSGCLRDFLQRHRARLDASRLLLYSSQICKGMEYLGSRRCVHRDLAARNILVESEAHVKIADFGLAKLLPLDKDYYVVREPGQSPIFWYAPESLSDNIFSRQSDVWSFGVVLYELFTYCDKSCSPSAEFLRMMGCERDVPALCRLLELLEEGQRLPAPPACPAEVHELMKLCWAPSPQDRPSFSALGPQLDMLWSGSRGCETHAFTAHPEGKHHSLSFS", "experiment": "Inhibition of JAK3 at 10 uM"}},
  "data": [
    {"smiles": "NC(=O)CCn1c(NC(=O)c2ccccc2)nc2cc(C(=O)N(C3CCCCC3)C3CCCCC3)ccc21", "values": [
      {"measurement": "IC50", "setting": "[1]", "result": "> 20000", "unit": "nM"}
    ]},
    {"smiles": "NCCCn1c(NC(=O)c2cccs2)nc2cc(C(=O)OC3CCCCC3)ccc21", "values": [
      {"measurement": "IC50", "setting": "[1]", "result": "> 20000", "unit": "nM"}
    ]},
    {"smiles": "CN(C(=O)C1CCCCC1)c1ccc2c(c1)nc(NC(=O)c1cccs1)n2CCCN", "values": [
      {"measurement": "IC50", "setting": "[2]", "result": 25, "unit": "nM"},
      {"measurement": "inhibition", "setting": "[3]", "result": 10, "unit": "%"},
      {"measurement": "IC50", "setting": "[4]", "result": 1400, "unit": "nM"},
      {"measurement": "IC50", "setting": "[5]", "result": 22000, "unit": "nM"},
      {"measurement": "IC50", "setting": "[6]", "result": "> 10000", "unit": "nM"},
      {"measurement": "IC50", "setting": "[7]", "result": 240, "unit": "nM"},
      {"measurement": "inhibition", "setting": "[8]", "result": -4, "unit": "%"},
      {"measurement": "inhibition", "setting": "[9]", "result": 1, "unit": "%"},
      {"measurement": "inhibition", "setting": "[10]", "result": 6, "unit": "%"},
      {"measurement": "IC50", "setting": "[11]", "result": "> 6000", "unit": "nM"},
      {"measurement": "inhibition", "setting": "[12]", "result": 8, "unit": "%"},
      {"measurement": "IC50", "setting": "[13]", "result": "> 22000", "unit": "nM"},
      {"measurement": "inhibition", "setting": "[14]", "result": 21, "unit": "%"},
      {"measurement": "IC50", "setting": "[1]", "result": 25, "unit": "nM"},
      {"measurement": "IC50", "setting": "[15]", "result": 1100, "unit": "nM"},
      {"measurement": "inhibition", "setting": "[16]", "result": -1, "unit": "%"},
      {"measurement": "IC50", "setting": "[17]", "result": "> 6000", "unit": "nM"},
      {"measurement": "IC50", "setting": "[18]", "result": "> 10000", "unit": "nM"},
      {"measurement": "IC50", "setting": "[19]", "result": 80, "unit": "nM"},
      {"measurement": "IC50", "setting": "[20]", "result": "> 22000", "unit": "nM"},
      {"measurement": "inhibition", "setting": "[21]", "result": 7, "unit": "%"},
      {"measurement": "IC50", "setting": "[22]", "result": "> 10000", "unit": "nM"},
      {"measurement": "IC50", "setting": "[23]", "result": 2400, "unit": "nM"},
      {"measurement": "IC50", "setting": "[24]", "result": 200, "unit": "nM"},
      {"measurement": "IC50", "setting": "[25]", "result": "> 10000", "unit": "nM"},
      {"measurement": "inhibition", "setting": "[26]", "result": -2, "unit": "%"},
      {"measurement": "inhibition", "setting": "[27]", "result": -7, "unit": "%"}
    ]},
    {"smiles": "NC(=O)CCn1c(NC(=O)c2ccsc2)nc2cc(C(=O)NC3CCCCC3)ccc21", "values": [
      {"measurement": "IC50", "setting": "[1]", "result": "> 20000", "unit": "nM"}
    ]},
    {"smiles": "NC(=O)CCn1c(NC(=O)c2ccccc2)nc2cc(C(=O)NC3CCCCC3)ccc21", "values": [
      {"measurement": "IC50", "setting": "[1]", "result": "> 20000", "unit": "nM"}
    ]}
  ]
}
